Read-outs that look alike come from different tables or passages of the source.
Biological target: T1, hM5 (Homo sapiens, UniProt P08912)
T1 construct: expressed in transfected cells
T1 sequence (P08912 1-532): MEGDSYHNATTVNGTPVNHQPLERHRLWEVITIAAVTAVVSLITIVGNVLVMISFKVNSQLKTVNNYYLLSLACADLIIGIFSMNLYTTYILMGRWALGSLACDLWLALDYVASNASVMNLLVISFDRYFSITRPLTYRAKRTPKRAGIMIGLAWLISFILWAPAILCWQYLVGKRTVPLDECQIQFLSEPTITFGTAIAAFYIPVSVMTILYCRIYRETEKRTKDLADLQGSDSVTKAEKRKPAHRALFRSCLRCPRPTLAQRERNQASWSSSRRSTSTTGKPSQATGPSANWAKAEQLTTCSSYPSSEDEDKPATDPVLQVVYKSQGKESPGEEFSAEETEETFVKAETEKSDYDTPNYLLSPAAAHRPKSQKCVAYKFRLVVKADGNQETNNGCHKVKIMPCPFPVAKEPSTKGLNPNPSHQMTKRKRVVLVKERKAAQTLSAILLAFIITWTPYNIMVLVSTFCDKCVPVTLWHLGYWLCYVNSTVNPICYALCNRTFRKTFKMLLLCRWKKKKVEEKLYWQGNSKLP
Test: Calcium mobilization concentration-response (IC50 vs EC80 acetylcholine), CHO hM5
Format: cell-based
Details: CELL LINE hM5, read-out: IC50
Method in brief: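 IC50 values derive from percent maximal acetylcholine response after an EC80 ACh addition, measured as kinetic calcium fluorescence (static ratio, max−min). Test compounds were added 140 s before agonist. Cells: stable hM5-CHO in HEPES-buffered HBSS with 2.5 mM probenecid, pH 7.4; ≥3 independent triplicate determinations.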

[1] = calcium mobilization, EC80 acetylcholine addition

Row | Compound | IC50 (vs EC80 acetylcholine) [nM] | IC50 [1] [nM]
1 | Cc1c(C2CCN(S(=O)(=O)c3cnn(C(F)F)c3C)CC2)cn2ncnc2c1F [Compound 269, 6-(1-((1-(difluoromethyl)-5-methyl-1H-pyrazol-4-yl)sulfonyl)piperidin-4-yl)-8-fluoro-7-methyl-[1,2,4]triazolo[1,5-a]pyridine] | – | 326
2 | COc1cc(C2CCN(S(=O)(=O)c3ccc4c(c3)CCO4)CC2)cn2ncnc12 [Compound 114, 6-(1-((2,3-dihydrobenzofuran-5-yl)sulfonyl)piperidin-4-yl)-8-methoxy-[1,2,4]triazolo[1,5-a]pyridine] | – | > 10000
3 | O=S(=O)(c1ccc2c(c1)CCO2)N1CCC(c2ncc3cc[nH]c3n2)CC1 [Compound 33, 2-(1-((2,3-dihydrobenzofuran-5-yl)sulfonyl)piperidin-4-yl)-7H-pyrrolo[2,3-d]pyrimidine] | – | > 10000
4 | Cc1nc(C)c(S(=O)(=O)N2CCC(c3nn4ccnc4cc3C)CC2)s1 [Compound 249, 2,4-dimethyl-5-((4-(7-methylimidazo[1,2-b]pyridazin-6-yl)piperidin-1-yl)sulfonyl)thiazole] | – | 2600
5 | Cc1cc2ncnn2nc1C1CCN(S(=O)(=O)c2cnn3ccccc23)CC1 [Compound 546, 7-methyl-6-(1-(pyrazolo[1,5-a]pyridin-3-ylsulfonyl)piperidin-4-yl)-[1,2,4]triazolo[1,5-b]pyridazine] | 534 | –
6 | CO[C@@H]1CN(S(=O)(=O)c2cnn3c2OCCC3)CC[C@H]1c1cn2ncnc2cc1C (racemic) [Compound 414, (rac)-3-((trans-3-methoxy-4-(7-methyl-[1,2,4]triazolo[1,5-a]pyridin-6-yl)piperidin-1-yl)sulfonyl)-6,7-dihydro-5H-pyrazolo[5,1-b][1,3]oxazine] | 1460 | –
7 | Cc1ncc(S(=O)(=O)N2CCC(c3ccc4ncnn4c3)CC2)n1C [Compound 286, 6-(1-((1,2-dimethyl-1H-imidazol-5-yl)sulfonyl)piperidin-4-yl)-[1,2,4]triazolo[1,5-a]pyridine] | – | 2000
8 | O=S(=O)(c1ccc2ncccc2c1)N1CCC(c2cc3[nH]ccc3cn2)CC1 [Compound 31, 6-((4-(1H-pyrrolo[3,2-c]pyridin-6-yl)piperidin-1-yl)sulfonyl)quinoline] | – | > 10000
9 | Cc1cc2c(cc1C1CCN(S(=O)(=O)c3cnn(C)c3Cl)CC1)OCO2 [Compound 372, 1-((5-chloro-1-methyl-1H-pyrazol-4-yl)sulfonyl)-4-(6-methylbenzo[d][1,3]dioxol-5-yl)piperidine] | – | 14
10 | Cc1cc2ncnn2cc1C1(F)CCN(S(=O)(=O)c2cnn(C)c2CC#N)CC1 [Compound 457, 2-(4-((4-fluoro-4-(7-methyl-[1,2,4]triazolo[1,5-a]pyridin-6-yl)piperidin-1-yl)sulfonyl)-1-methyl-1H-pyrazol-5-yl)acetonitrile] | > 10000 | –
11 | Cc1ncc(S(=O)(=O)N2CCC(c3cn4ccnc4cc3C)CC2)s1 [Compound 583, 2-methyl-5-((4-(7-methylimidazo[1,2-a]pyridin-6-yl)piperidin-1-yl)sulfonyl)thiazole] | 2070 | –
12 | O=S(=O)(c1ccc2c(c1)CCO2)N1CCC(c2cc3ccncc3s2)CC1 [Compound 13, 2-(1-((2,3-dihydrobenzofuran-5-yl)sulfonyl)piperidin-4-yl)thieno[2,3-c]pyridine] | – | > 10000
13 | Cn1ncc(S(=O)(=O)N2CCC(c3ccncc3)CC2)c1Cl [Compound 364, 4-(1-((5-chloro-1-methyl-1H-pyrazol-4-yl)sulfonyl)piperidin-4-yl)pyridine] | – | > 10000
14 | Cc1ccncc1C1CCN(S(=O)(=O)c2cnc(C)n2C)CC1 [Compound 385, 3-(1-((1,2-dimethyl-1H-imidazol-5-yl)sulfonyl)piperidin-4-yl)-4-methylpyridine] | – | > 10000
15 | Cc1c(C2CCN(S(=O)(=O)c3nncn3C)CC2)cn2ncnc2c1F [Compound 542, 8-fluoro-7-methyl-6-(1-((4-methyl-4H-1,2,4-triazol-3-yl)sulfonyl)piperidin-4-yl)-[1,2,4]triazolo[1,5-a]pyridine] | 1710 | –

Second part, the compound after the results:

Row | IC50 (vs EC80 acetylcholine) [nM] | IC50 [1] [nM] | Compound
16 | 4770 | – | CCc1cc2ncnn2cc1C1CCN(S(=O)(=O)c2cnc(Cl)s2)CC1 [Compound 513, 2-chloro-5-((4-(7-ethyl-[1,2,4]triazolo[1,5-a]pyridin-6-yl)piperidin-1-yl)sulfonyl)thiazole]
17 | – | 8150 | Cc1c(S(=O)(=O)N2CCC(c3cn4ncnc4cc3OC(F)(F)F)CC2)cnn1C [Compound 378, 6-(1-((1,5-dimethyl-1H-pyrazol-4-yl)sulfonyl)piperidin-4-yl)-7-(trifluoromethoxyl)-[1,2,4]triazolo[1,5-a]pyridine]
18 | – | 43 | Cc1c(C2CCN(S(=O)(=O)c3cnc(C)n3C)CC2)cn2ncnc2c1F [Compound 304, 6-(1-((1,2-dimethyl-1H-imidazol-5-yl)sulfonyl)piperidin-4-yl)-8-fluoro-7-methyl-[1,2,4]triazolo[1,5-a]pyridine]
19 | 496 | – | Cc1ncc(S(=O)(=O)N2CCC(c3cn4ncnc4cc3C(F)(F)F)CC2)o1 [Compound 498, 2-methyl-5-((4-(7-(trifluoromethyl)-[1,2,4]triazolo[1,5-a]pyridin-6-yl)piperidin-1-yl)sulfonyl)oxazole]
20 | – | 25 | Cc1cc2ncnn2cc1C1CCN(S(=O)(=O)c2c(Cl)nn(C)c2C)CC1 [Compound 325, 6-(1-((3-chloro-1,5-dimethyl-1H-pyrazol-4-yl)sulfonyl)piperidin-4-yl)-7-methyl-[1,2,4]triazolo[1,5-a]pyridine]
21 | 72 | – | Cc1cc2ncnn2cc1C1CCN(S(=O)(=O)c2cnn(C)c2CC#N)CC1 [Compound 401, 2-(1-methyl-4-((4-(7-methyl-[1,2,4]triazolo[1,5-a]pyridin-6-yl)piperidin-1-yl)sulfonyl)-1H-pyrazol-5-yl)acetonitrile]
22 | 3070 | – | Cc1ncc(S(=O)(=O)N2CCC(c3cn4ncnc4cc3F)CC2)o1 [Compound 507, 5-((4-(7-fluoro-[1,2,4]triazolo[1,5-a]pyridin-6-yl)piperidin-1-yl)sulfonyl)-2-methyloxazole]
23 | – | 849 | Cn1ncc(S(=O)(=O)N2CCC(c3cc(F)c4ncnn4c3)CC2)c1Cl [Compound 382, 6-(1-((5-chloro-1-methyl-1H-pyrazol-4-yl)sulfonyl)piperidin-4-yl)-8-fluoro-[1,2,4]triazolo[1,5-a]pyridine]
24 | 889 | – | CCc1cc2ncnn2cc1C1CCN(S(=O)(=O)c2cnc(C)o2)CC1 [Compound 496, 5-((4-(7-ethyl-[1,2,4]triazolo[1,5-a]pyridin-6-yl)piperidin-1-yl)sulfonyl)-2-methyloxazole]
25 | – | 1900 | Cc1cc(S(=O)(=O)N2CCC(c3cn4ncnc4cc3C(F)(F)F)CC2)c(C)s1 [Compound 280, 6-(1-((2,5-dimethylthiophen-3-yl)sulfonyl)piperidin-4-yl)-7-(trifluoromethyl)-[1,2,4]triazolo[1,5-a]pyridine]
26 | – | > 10000 | Cc1cc2ncnn2cc1C1CCN(S(=O)(=O)c2ccc3c(c2)ncn3C)CC1 [Compound 189, 7-methyl-6-(1-((1-methyl-1H-benzo[d]imidazol-5-yl)sulfonyl)piperidin-4-yl)-[1,2,4]triazolo[1,5-a]pyridine]
27 | – | > 10000 | Cc1c(S(=O)(=O)N2CCC(c3cn4ncnc4cc3F)CC2)cnn1C(F)F [Compound 230, 6-(1-((1-(difluoromethyl)-5-methyl-1H-pyrazol-4-yl)sulfonyl)piperidin-4-yl)-7-fluoro-[1,2,4]triazolo[1,5-a]pyridine]
28 | – | 99 | O=S(=O)(c1cnc2n1CCCC2)N1CCC(c2cn3ncnc3cc2F)CC1 [Compound 326, 7-fluoro-6-(1-((5,6,7,8-tetrahydroimidazo[1,2-a]pyridin-3-yl)sulfonyl)piperidin-4-yl)-[1,2,4]triazolo[1,5-a]pyridine]
29 | – | 85 | CCc1cc2ncnn2cc1C1CCN(S(=O)(=O)c2cnn(C)c2C(F)F)CC1 [Compound 301, 6-(1-((5-(difluoromethyl)-1-methyl-1H-pyrazol-4-yl)sulfonyl)piperidin-4-yl)-7-ethyl-[1,2,4]triazolo[1,5-a]pyridine]
30 | 1390 | – | [2H]C1([2H])CC(c2cn3ncnc3cc2F)CC([2H])([2H])N1S(=O)(=O)c1cnc(C)o1 [Compound 567, 5-((4-(7-fluoro-[1,2,4]triazolo[1,5-a]pyridin-6-yl)piperidin-1-yl-2,2,6,6-d4)sulfonyl)-2-methyloxazole]
31 | – | 1400 | Cc1cc2ncnn2cc1C1CCN(S(=O)(=O)c2cnc(Cl)c(C)c2)CC1 [Compound 57, 6-(1-((6-chloro-5-methylpyridin-3-yl)sulfonyl)piperidin-4-yl)-7-methyl-[1,2,4]triazolo[1,5-a]pyridine]
32 | – | 1470 | Cc1cc2ncnn2cc1C1CCN(S(=O)(=O)c2cnn(C)c2Cl)C(C)C1 (stereo not drawn) [Compound 361, 6-(1-((5-chloro-1-methyl-1H-pyrazol-4-yl)sulfonyl)-2-methylpiperidin-4-yl)-7-methyl-[1,2,4]triazolo[1,5-a]pyridine]
33 | – | 176 | Cn1ncc(S(=O)(=O)N2CCC(c3cn4ncnc4cc3F)CC2)c1C(F)F [Compound 231, 6-(1-((5-(difluoromethyl)-1-methyl-1H-pyrazol-4-yl)sulfonyl)piperidin-4-yl)-7-fluoro-[1,2,4]triazolo[1,5-a]pyridine]
